From patent publication US10660928B2, “Pharmaceutical composition containing combination extracts of Moutan Root Bark, Angelica Dahurica Root, bupleurum root or fractions thereof for prevention and treatment of neurodegenerative disorder” (UNIVERSITY-INDUSTRY COOPERATION GROUP OF KYUNG HEE …, priority 2014, dated 2020)

Columns and labels:
[1] = system: inducible nitric oxide synthase (iNOS); assay: RT-PCR of iNOS mRNA, LPS-induced cells; format: cell-based, mouse; conditions: BV2, treatment 1.0 μg/ml, LPS 100 ng/ml; negative control 100.00
Description: (§1) Particularly, BV2 cells were cultured by the same manner as described in Experimental Example <3-1>, and inflammatory response was induced. Then, RT-PCR was performed with the cells by the same manner as described in Experimental Example <1-4>, followed by quantitative analysis of the expression levels of iNOS, IL-6, and NF-kB p65/ReIA genes. The normal control was not treated with the extract of the invention or the active component thereof but treated with DMSO alone. The negative control was not treated with the extract or the active component but treated with 100 ng/ml of LPS alone to induce inflammatory response. Then, the expression of the inflammatory response marker gene was confirmed by the same manner as described above.

BV2 cells [2] = assay: DCF-DA intracellular ROS, LPS-induced cells; format: cell-based, mouse; conditions: BV2, treatment 1.0 μg/ml, inducer LPS 100 ng/ml
Description: Particularly, BV2 cells were cultured by the same manner as described in Experimental Example <3-1>, and inflammatory response was induced. Then, the cells induced with inflammatory response were treated with 1 μM DCF-DA and 0.05 μM bisbenzimide (Hoechst 33342), followed by staining at 37° C. for 1 hour. After the staining, the fluorescence intensity of DCF-DA was measured at 485 nm/535 nm, and the fluorescence intensity of bisbenzimide was measured at 335 nm/460 nm. Based on the ratio of DCF-DA/bisbenzimide, ROS was quantified. The amount of ROS, either increased or decreased, was compared with that of the normal control not treated with the extract or the active component thereof but treated with DMSO, and the results were presented as %. The negative control was treated with 100 ng/ml of LPS alone to induce inflammatory response but not treated with the extract or the active component thereof. Then, the generation of ROS was investigated by the same manner as described above.
(§2) Particularly, BV2 cells were cultured by the same manner as described in Experimental Example <3-1>, and inflammatory response was induced. Then, 100 μl of the cell culture medium was obtained, to which 100 μl of Griess reagent comprising hydrochloric acid containing 5% sulfanilamide and 2% naphthylethylenediamine was added, followed by reaction in a dark room for 30 minutes. Upon completion of the reaction, OD540 was measured with an EISA microplate reader (Versamax, USA). The concentration of nitric oxide in the medium was calculated using the standard calibration curve of sodium nitrite. To measure the ROS concentration, the cells were treated with 1 μM DCF-DA and 0.05 μM bisbenzimide (Hoechst 33342), followed by staining at 37° C. for 1 hour. After the staining, the fluorescence intensity of DCF-DA was measured at 485 nm/535 nm, and the fluorescence intensity of bisbenzimide was measured at 335 nm/460 nm. Based on the ratio of DCF-DA/bisbenzimide, ROS was quantified. The amount of ROS, either increased or decreased, was compared with that of the normal control not treated with the extract but treated with DMSO, and the results were presented as %. The negative control was treated with 100 ng/ml of LPS alone to induce inflammatory response but not treated with the extract or the active component thereof. Then, the nitric oxide concentration reduction effect and the ROS concentration reduction effect were investigated by the same manner as described above.

BV2 cells [3] = assay: MTT assay, LPS-induced inflammatory response; format: cell-based, mouse; conditions: BV2, treatment 1.0 μg/ml, inducer LPS 100 ng/ml
Description: Particularly, BV2 cells were cultured by the same manner as described in Experimental Example <3-1>. Then, the cultured cells were transferred into a serum free medium at the density of 1×10^5 cells/well. The cells were treated with the Bupleurum Root 90% ethanol extract prepared in Example <1-3>, saikosaponin A, saikosaponin B2, saikosaponin B4, or saikosaponin D at the concentration of 1.0 μg/ml, followed by culture for 4 hours. The cells were then treated with 100 ng/ml of lipopolysaccharide (LPS), followed by culture for 20 hours to induce inflammatory response. MTT assay was performed with the cells induced with inflammatory response by the same manner as described in Experimental Example <1-2>. The damage of mitochondria complex 1 was confirmed to see how the damage level was either increased or decreased, compared with the normal control group treated with DMSO without the extract or its active component. In the meantime, the negative control group was treated with 100 ng/ml of LPS alone to induce inflammatory response and was not treated with the extract or its active component. Then, MTT assay was performed by the same manner as described above.

interleukin-6, (IL-6) = assay: RT-PCR of IL-6 mRNA, LPS-induced cells; format: cell-based, mouse; conditions: BV2, treatment 1.0 μg/ml, LPS 100 ng/ml; negative control 100.00
Description: as §1

BV2 cells [4] = assay: Griess method, nitric oxide in medium of LPS-induced cells; format: cell-based, mouse; conditions: BV2, treatment 1.0 μg/ml, inducer LPS 100 ng/ml
Description: Particularly, BV2 cells were cultured by the same manner as described in Experimental Example <3-1>, and inflammatory response was induced. Then, 100 μl of the cell culture medium was obtained, to which 100 μl of Griess reagent comprising hydrochloric acid containing 5% sulfanilamide and 2% naphthylethylenediamine was added, followed by reaction in a dark room for 30 minutes. Upon completion of the reaction, OD540 was measured with an EISA microplate reader (Versamax, USA). The concentration of nitric oxide in the medium was calculated using the standard calibration curve of sodium nitrite. The normal control was not treated with the extract or the active component thereof but treated with DMSO. The negative control was treated with 100 ng/ml of LPS alone to induce inflammatory response but not treated with the extract or the active component. Then, the nitric oxide concentration reduction effect was investigated by the same manner as described above.
as §2

NF-kB p65/ReIA = assay: RT-PCR of NF-kB p65/ReIA mRNA, LPS-induced cells; format: cell-based, mouse; conditions: BV2, treatment 1.0 μg/ml, LPS 100 ng/ml; negative control 100.00
Description: as §1

SH-SY5Y cells = assay: ATP assay, atrazine-induced loss of intracellular ATP; format: cell-based, human; conditions: treatment 1 μg/ml, inducer atrazine 50 μg/ml
Description: Particularly, SH-SY5Y cells were cultured by the same manner as described in Experimental Example <1-2>, to which 50 μg/ml of atrazine was treated to induce malfunction of mitochondria. Then, 100 μl of the cell lysate obtained from the cells with the malfunctioned mitochondria was mixed with 100 μl of luciferin-luciferase by using ATP bioluminescent somatic cell assay kit (Sigma, USA), followed by culture at 20° C. for 10 minutes. The supernatant was obtained. Fluorescence signal was measured by using LB 9501 Lumat luminometer (Berthold, Germany). The fluorescence of the control well containing the cell free medium was used as the background. The measured values were calculated by subtracting the background, and the amount of ATP was normalized to the protein concentration. The normal control was not treated with the extract of the invention or the active component thereof but instead treated with DMSO alone. All the results were presented as % by the normal control to present the intracellular ATP level. The negative control was treated with 50 μg/ml of atrazine alone to induce mitochondrial damage and not treated with the extract or the active component thereof. The Intracellular ATP level was measured by the same manner as described above.

[5] = system: SH-SY5Y, the human neuroblastoma cell line; assay: MTT assay, atrazine-induced mitochondria complex 1 damage; format: cell-based; conditions: treatment 1 μg/ml, inducer atrazine 50 μg/ml
Description: Particularly, SH-SY5Y, the human neuroblastoma cell line, was inoculated in DMEM/F12 (1:1, Dulbeco's Modified Eagle's Medium & Ham's F12; Gibco, USA) supplemented with 10% FBS, followed by culture in a 37° C., 5% CO2/95% air (O2) incubator. Then, the cultured cells were transferred into a serum free medium at the density of 1×10^5 cells/well. […] Sigma, USA), followed by culture for 4 hours. Then, the MTT formazan precipitate formed by survived cells was dissolved in 100 μl of 0.04 N HCl/isopropanol. OD540 was measured with an ELISA microplate reader (Molecular Devices, USA). The damage of mitochondria complex 1 was confirmed to see how the damage level was either increased or decreased, compared with the normal control group treated with DMSO without the extract or its active component. In the meantime, the negative control group was treated with 50 μg/ml of atrazine alone to induce mitochondrial damage and was not treated with the extract or its active component. Then, MTT assay was performed by the same manner as described above.

Park7 (DJ-1) = assay: RT-PCR of Park7 (DJ-1) expression, atrazine-damaged cells; format: cell-based, human; conditions: 1 μg/ml
Description: (§3) Particularly, SH-SY5Y cells were cultured by the same manner as described in Experimental Example <1-2>, and mitochondrial malfunction was induced. Then, the cells with the malfunctioned mitochondria were suspended in TRIzol (Invitrogen, USA) and total RNA was extracted therefrom according to the manufacturer's protocol. […] PCR was performed with GeneAmp PCR system 9700 (Applied Biosystem, USA) under the required optimum condition by using the synthesized cDNA as a template in the presence of the forward and reverse primers listed in Table 5 below, leading to the amplification of COX III and Park? (DJ-1) genes. The amplified PCR products were electrophoresed on 1.5% agarose gel. The relative concentration was measured by using an image densitometer (Alpha Ease FC software; Alpha Innotech, USA) under UV. The level of mRNA was standardized by comparison with the level of 18S rRNA. The normal control was not treated with the extract of the invention or the active component thereof but instead treated with DMSO alone. The negative control was treated with 50 μg/ml of atrazine alone to induce mitochondrial damage and not treated with the extract or the active component thereof. The gene expression level was investigated by the same manner as described above.

[6] = system: SH-SY5Y, the human neuroblastoma cell line; assay: Cell survival rate (calcein) in normal cells, cytotoxicity; format: cell-based; conditions: 1 μg/ml
Description: Particularly, SH-SY5Y, the human neuroblastoma cell line, was inoculated in DMEM/F12 (Dulbeco's Modified Eagle's Medium & Ham's F12; Gibco, USA) supplemented with 10% FBS, followed by culture in a 37° C., 5% CO2/95% air (O2) incubator. Then, the cultured cells were transferred into a serum free medium at the density of 2.5×10^4 cells/well. […] The cells were collected and the cell survival rate was measured by using calcein. The survival rate of the cells that were increased or decreased compared with that of the normal control cells not-treated with the extract or its active component above and instead treated with DMSO was calculated and presented as percentage (%). Particularly, SH-SY5Y cells were cultured by the same manner as described in Experimental Example <1-1>. The cultured cells were transferred in a serum free medium at the density of 2.5×10^4 cells/well. […] The cells were collected and the cell survival rate was measured by using calcein. The cell survival rate that was increased or decreased compared with that of the normal control group not-treated with the extract or its active component above and instead treated with DMSO was calculated and presented as percentage (%).

[7] = system: cytochrome c oxidase subunit III (COX III); assay: RT-PCR of COX III expression, atrazine-damaged cells; format: cell-based, human; conditions: 1 μg/ml
Description: as §3

[8] = normal SH-SY5Y cells, 4 hours, calcein

C[C@H]1O[C@@H](O[C@H]2CC[C@@]3(C)[C@@H](CC[C@]4(C)[C@@H]3C=C[C@]35OC[C@@]6(CCC(C)(C)C[C@H]63)[C@@H](O)C[C@]54C)[C@]2(C)CO)[C@H](O)[C@@H](O[C@@H]2O[C@H](CO)[C@@H](O)[C@H](O)[C@H]2O)[C@H]1O [saikosaponin A, (3beta,4alpha,16beta)-13,28-Epoxy-16,23-dihydroxyolean-11-en-3-yl-6-deoxy-3-O-beta-D-glucopyranosyl-beta-D-galactopyranoside]
iNOS mRNA (% of control) [1]: 14.85 ± 1.47 % of control
DCF-DA-ROS (% of control) (BV2 cells [2]): 198.24 ± 3.72 % of control
MTT (% of control) (BV2 cells [3]): 91.49 ± 6.20 % of control
IL-6 mRNA (% of control) (interleukin-6, (IL-6)): 18.05 ± 1.23 % of control
NO (BV2 cells [4]): 10.8 ± 3.6 µM
p65/ReIA mRNA (% of control) (NF-kB p65/ReIA): 40.38 ± 1.05 % of control

COc1ccc(C(C)=O)c(O)c1 [Paeonol, 2′-Hydroxy-4′-methoxyacetophenone]
Intracellular ATP content (% of control) (SH-SY5Y cells): 101.9 ± 7.42 % of control
MTT (% of control) [5]: 101.8 ± 7.21 % of control
Park7(DJ-1)/18S rRNA (Park7 (DJ-1); with atrazine): 0.95 ± 0.07
Park7(DJ-1)/18S rRNA (Park7 (DJ-1); without atrazine): 1.22 ± 0.08
Cell survival rate (% of control) [6, 8]: 102.2 ± 9.10 % of control
COX III/18S rRNA ([7]; with atrazine): 1.07 ± 0.07
COX III/18S rRNA ([7]; without atrazine): 1.05 ± 0.03

C[C@@]12C[C@@]3(O)O[C@@H](O1)[C@]1(COC(=O)c4ccccc4)[C@H]3C[C@@]12O[C@@H]1O[C@H](CO)[C@@H](O)[C@H](O)[C@H]1O [paeoniflorin]
Intracellular ATP content (% of control) (SH-SY5Y cells): 94.3 ± 6.44 % of control
MTT (% of control) [5]: 96.4 ± 7.44 % of control
Park7(DJ-1)/18S rRNA (Park7 (DJ-1); with atrazine): 2.03 ± 0.07
Park7(DJ-1)/18S rRNA (Park7 (DJ-1); without atrazine): 1.05 ± 0.08
Cell survival rate (% of control) [6, 8]: 97.9 ± 7.34 % of control
COX III/18S rRNA ([7]; with atrazine): 0.92 ± 0.08
COX III/18S rRNA ([7]; without atrazine): 1.11 ± 0.04

C[C@@]12CC(=O)[C@H]3C[C@]1(O)O[C@H](O2)[C@@H]3COC(=O)c1ccccc1 [paeoniflorigenone, [(2s,3as,5s,7ar,8s)-3a-hydroxy-7a-methyl-6-oxohexahydro-2,5-methano-1,3-benzodioxol-8-yl]methyl benzoate]
Intracellular ATP content (% of control) (SH-SY5Y cells): 89.1 ± 7.97 % of control
MTT (% of control) [5]: 95.5 ± 6.09 % of control
Park7(DJ-1)/18S rRNA (Park7 (DJ-1); with atrazine): 0.45 ± 0.02
Park7(DJ-1)/18S rRNA (Park7 (DJ-1); without atrazine): 0.98 ± 0.08
Cell survival rate (% of control) ([6]; human, 4 h): 98.9 ± 8.10 % of control
COX III/18S rRNA ([7]; with atrazine): 0.86 ± 0.07
COX III/18S rRNA ([7]; without atrazine): 1.04 ± 0.05
